Assay results taken from publication PMC10496123, “Potent Antifungal Activity of Penta-O-galloyl-β-D-Glucose against Drug-Resistant Candida albicans, Candida auris, and Other Non-albicans Candida Species” (ACS Infectious Diseases, 2023).
Converted amounts (≈) assume the structure as drawn. “And” between values parts separate entries of the source, which are not always exact repeats. Identical values can stand only once.

Legend:
MRSA (various strains) = details: antibacterial; possibly iron chelation; cited from earlier work
C. albicans 90028 [1] = assay: Iron supplementation growth inhibition assay; type: cell-based, Candida albicans; details: 10 mM iron (II) or iron (III); PGG 4–16 μg mL^–1; 48 h
Method: (§1) For iron supplementation assays, growth inhibition assays were performed by microbroth dilution following the guidelines set by the CLSI.[58] A solution of iron (II) sulfate and iron (III) sulfate (VWR) was dissolved in deionized water to a concentration of 10 mM and added to treated wells at the beginning of incubation. Growth inhibition was measured after 48 h. Percent growth inhibition was determined by comparing treatments to vehicle controls. Iron supplementation experiments were repeated in duplicate with three technical replicates per treatment and on different days.

SK-HEP-1 cells = system: SK-HEP-1 cells; design: method as in PMID 11675148; details: inhibition of proliferation; cited from earlier work
C. glabrata CDC325 = assay: Iron supplementation growth inhibition assay; type: cell-based, Candida glabrata; details: 10 mM iron (II) or iron (III); PGG 4–16 μg mL^–1; 48 h
Method: as §1

HepG2 cells = assay: CellTiter-Glo cell viability/proliferation (relative ATP); type: cell-based; details: Homo sapiens, HepG2, 24 h; read-out: IC50 (viable cell number reduced by 50%, relative ATP)
Method: (§2) Hek293 cells were purchased from BEI Resources. HaCaT cells were purchased from ATCC. HepG2 cells were provided by Dr. Edward Morgan (Emory University). Mammalian cell cultures were maintained in Dulbecco’s modified Eagle’s medium with L-glutamine and 4.5 g L^–1 glucose (Corning) supplemented with 10% fetal bovine serum (Avantor) and a 100× combination solution of 10,000 IU mL^–1 penicillin and 10,000 μg mL^–1 streptomycin (Corning) at 37 °C, 5% CO2. Mammalian cultures at 70–80% confluency were used for cell viability and cytotoxicity experiments.
(§3) ATP content as a marker for the relative viable cell number was measured with the CellTiter-Glo Luminescent Cell Viability assay (Promega Corporation). The mammalian culture was standardized at 4 × 10^3 cells per 100 μL in a Costar 3610 white plate, clear bottom 96-well plates (Corning). Cells were allowed to attach and incubate for 24 h before growth media was replaced with treatment media (PGG, 16–512 μg mL^–1) or an equivalent volume of DMSO, followed by incubation for 24 h. After incubation with treatment, plates were equilibrated to room temperature for 1 h, and then 100 μL of CellTiter-Glo reagent was added to each well and mixed for 2 min. Plates were allowed to incubate at room temperature for 10 min before luminosity was measured with an integration time of 1 s via a BioTek Cytation3 plate reader. The relative viable cell number was measured by comparing treatment samples to untreated controls. Experiments were repeated in triplicate with three technical replicates per treatment and on different days.

HaCaT cells = assay: as above; type: cell-based; details: Homo sapiens, 24 h, read-out: IC50 (viable cell number, relative ATP)
Method: as §2, §3

Hek293 cells = assay: as above; type: cell-based; details: Homo sapiens, HEK293, 24 h; read-out: IC50 (viable cell number reduced by 50%, relative ATP)
Method: as §2, §3

[2] = system: Acinetobacter baumannii (various strains); design: method as in PMID 32948818; details: antibacterial; possibly iron chelation; cited from earlier work
C. albicans = assay: Concentration-response matrixes (checkerboard assays); type: cell-based, Candida albicans; details: FICI at 90% growth inhibition, 48 h, 30 °C
[3] = LDH chemical-induced cytotoxicity; type: cell-based
Method: as §2
The mammalian culture was standardized to 4 × 10^3 cells per 100 μL. Cells were allowed to attach and incubate for 24 h before growth media was replaced with treatment media (PGG, 16–512 μg mL^–1) or an equivalent volume of the DMSO vehicle, followed by incubation for 24 h. Plates were then evaluated with an LDH cytotoxicity assay (G Biosciences) and processed according to the manufacturer’s protocol for chemical-induced cytotoxicity. Experiments were repeated in triplicate with three technical replicates per treatment and on different days.

HT-29 cells = system: HT-29 cells; design: method as in PMID 27196315, PMID 29778287; details: inhibition of proliferation; cited from earlier work
C. albicans 90028 [4] = assay: Media supplementation (Mg, Ca, Mn, Zn) growth inhibition assay; type: cell-based, Candida albicans
Method: For media supplementation experiments, magnesium sulfate (Alfa Aesar), manganese sulfate, zinc sulfate, and calcium chloride (Ward Science) were dissolved in RPMI-1640 media and, after 24 h, added at a final concentration of 1 mM. Growth inhibition was measured 24 h after media supplementation. Percent growth inhibition was determined by comparing treatments to vehicle controls. Media supplementation experiments were repeated in triplicate with four technical replicates per treatment and on different days. page 6: Figure S5. Effect of supplemental cations on growth inhibition of penta-O-galloyl- β-D-glucose against C. albicans. C. albicans.90028 was treated with PGG alone and in combination with 1 mM magnesium (Mg2+) or 1 mM calcium (Ca2+). The data are plotted as mean % growth inhibition ± SD as compared to vehicle controls from two independent experiments. Dotted line represents 90% growth inhibition. S6 (1 picture or pasted object on this page, not shown here) page 7: Figure S6. Effect of supplemental metal ions on growth inhibition of penta-O- galloyl-β-D-glucose against C. albicans. C. albicans 90028 was treated with PGG alone and in combination with 1 mM manganese (Mn2+) or 1 mM zinc (Zn2+). The data are plotted as mean % growth inhibition ± SD as compared to vehicle controls from two independent experiments . Dotted line represents 90% growth inhibition . Statistical analysis was done using 2 -way ANOVA with multiple comparisons. The symbol (*) […] S7 (1 picture or pasted object on this page, not shown here)

[5] = system: Staphylococcus aureus (various strains); design: method as in doi:10.1016/j.foodchem.2010.04.072; details: antibacterial; possibly iron chelation; cited from earlier work
mice = details: 20 mg/kg/day orally in mice; cited from earlier work
Candida glabrata = assay: Growth inhibition by CLSI microbroth dilution; type: cell-based; details: for IC50 / MIC: Nakaseomyces glabratus, 48 h; for IC50: >50% growth inhibition; for MIC: >90% growth inhibition

For `O=C(OC[C@H]1O[C@@H](OC(=O)c2cc(O)c(O)c(O)c2)[C@H](OC(=O)c2cc(O)c(O)c(O)c2)[C@@H](OC(=O)c2cc(O)c(O)c(O)c2)[C@@H]1OC(=O)c1cc(O)c(O)c(O)c1)c1cc(O)c(O)c(O)c1` [PGG, penta-O-galloyl-β-D-glucose], the IC50/EC50 (MRSA (various strains)) is listed as 16 to 32 µg/mL, the “Reduction of the growth inhibitory activity on iron supplementation” value (C. albicans 90028 [1]) is listed as 80–100% and the IC50/EC50 (SK-HEP-1 cells) is listed as 25 to 50 µM. The “Reduction of the growth inhibitory activity on iron supplementation” value (C. glabrata CDC325) was 80–100%, the IC50 (HepG2 cells) was 68 µM and 64 µg/mL and the IC50 (HaCaT cells) was 32 µg/mL and 34 µM. The IC50 (Hek293 cells) was 64 µg/mL and 68 µM, the IC50/EC50 [2] was 16 to 64 µg/mL and the “Synergistic interaction with caspofungin” value (C. albicans; C. albicans ATCC 90028) was “does not potentiate”. The “Synergistic interaction with fluconazole” value (C. albicans; azole-tolerant clinical isolate CaCi-2) was “does not potentiate”, the CC50 at 24 h ([3]; HaCaT cells (keratinocytes), HaCaT (human keratinocytes)) was > 272 µM and the CC50 at 24 h ([3]; HaCaT cells (keratinocytes), HaCaT (human keratinocytes), serum-supplemented medium) was > 256 µg/mL. For the same compound, the CC50 at 24 h ([3]; Hek293 cells (kidney), Hek293 (human kidney)) was > 272 µM, the CC50 at 24 h ([3]; Hek293 cells (kidney), Hek293 (human kidney), serum-supplemented medium) was > 256 µg/mL and the CC50 at 24 h ([3]; HepG2 cells (liver), HepG2 (human liver)) was > 272 µM. The CC50 at 24 h ([3]; HepG2 cells (liver), HepG2 (human liver), serum-supplemented medium) was > 256 µg/mL, the IC50/EC50 (HT-29 cells) was 4.46 µM and the “Effect of cation treatment (calcium, magnesium) on growth inhibition” value (C. albicans 90028 [4]; 1 mM Mg2+ or Ca2+) was “no significant effect”. For the same compound, the “Effect of manganese supplementation on growth inhibition” value (C. albicans 90028 [4]; 1 mM Mn2+, at 0.5× MIC of PGG) was “minor effect”, the “Effect of zinc supplementation on growth inhibition” value (C. albicans 90028 [4]; 1 mM Zn2+) was “no effect” and the IC50/EC50 [5] was 16 to 32 µg/mL. For the same compound, the Tolerability (mice) was “tolerated without ill effects”, the IC50 (Candida glabrata; strain AR Bank #0325) was 0.25 µg/mL (≈ 0.266 µM) and the MIC (Candida glabrata; strain AR Bank #0325) was 0.5 µg/mL (≈ 0.532 µM). The IC50 (Candida glabrata; strain AR Bank #0326) was 0.125 µg/mL (≈ 0.133 µM), the MIC (Candida glabrata; strain AR Bank #0326) was 0.25 µg/mL (≈ 0.266 µM) and the “MIC (range over strains)” value (Candida glabrata; two strains of C. glabrata) was 0.25 to 0.5 μg mL^–1.
